Assay results: patent US20190382850A1, “METHOD FOR IDENTIFYING MITOCHONDRIAL DNA IN EXTRACELLULAR VESICLES AND TREATMENT OF MTDNA-RELATED DISORDERS AND CANCER” (Memorial Sloan-Kettering Cancer Center, priority 2017, published 2019)

Test system: ND1 DNA in EVs from patients
Assay: mtDNA ND1 level (qPCR) in circulating EVs of patients before and after therapy
Assay type: in vivo, human
Conditions: FIG. 7d
Protocol: (Panel a), Dot plot of nuclear DNA copy number quantification as determined by qPCR for GAPDH gene in circulating EVs isolated from fresh collected plasma (5-8 ml) of 8 healthy controls and 20 luminal breast cancer patients at different stage of their disease (Table 5). Each point corresponds to a patient sample. (Panel b), Schematic and gel electrophoresis of whole mtDNA genome amplified in several patient derived circulating EV-DNA resulting from 46 overlapping PCR amplicons to cover all the mtDNA genome. (Panel c), mtDNA ND1 level change (Ct qPCR value from 2 ng of total EV-DNA) determined in the same patient (two different examples are reported) following time and therapy response (PR, partial response; Stable Disease; POD, progression of disease); (Panel d) mtDNA ND1 level change (Ct qPCR value from 2 ng of total EV-DNA) determined in two different patients (#1, #2) before and after a certain therapy. Data are reported as error bars, mean±s.d. of n=3 independent experiments. […]
DNA and cDNAs were amplified by quantitative PCR (qPCR) using the Applied Biosystem Viia™ 7 Real-Time PCR System in the Power SYBR® Green PCR Master Mix Buffer. […] For analysis, ΔΔct method was applied and fold change was calculated (2^−ΔΔct). […]

With `COc1cccc2c1C(=O)c1c(O)c3c(c(O)c1C2=O)C[C@@](O)(C(=O)CO)C[C@@H]3O[C@H]1C[C@H](N)[C@H](O)[C@H](C)O1` [Doxorubicin] the “ND1 DNA level in EVs from patients receiving the therapy” value was “higher”.
